What all share (experiment): inhibition of tumour cell growth, NCI panel, 48 h
In experiment [1] the test system is NCI-H226.
Experiment [2] has as its system OVCAR-4.
Experiment [3] deals with NCI-H460.
The test system of experiment [4] is CAKI-1.
The subject of experiment [5] is MDA-MB-231.
The test system of experiment [6] is NCI-H522.
Experiment [7] relates to 786-0.
Experiment [8] relates to HOP-92.
For experiment [9], the system named is SK-MEL-5.
Experiment [10] concerns SK-OV-3.
Experiment [11] has as its system SN12C.
Experiment [12] deals with SF-539.
In experiment [13] the test system is A549.
For experiment [14], the system named is EKVX.
The subject of experiment [15] is TK-10.
Experiment [16] relates to A498.
Experiment [17] concerns RXF 393.
In experiment [18] the test system is UACC-257.
Experiment [19] deals with SR.

Each structure is given as a SMILES string.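 A five-concentration, 48-hour dose response in 96-well plates underlies each endpoint, interpolated linearly between surrounding concentrations. Abbreviation: GI50, concentration required for 50% inhibition of growth.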 Active and inactive are the calls of the source. Cut-off read from the data, not from the text of the source: active = GI50 up to about 1.1 µM and inactive = higher.

Regarding `C=C1OC(c2ccccc2NC)=NC12CCCCC2`, the GI50 in experiment [1], in [2], in [3], in [4], in experiment [5] and in experiment [6] was > 100 µM (inactive) in each case. Also, the GI50 in [7], in experiment [8], in experiment [9], in [10], in experiment [11] and in experiment [12] was > 100 µM (inactive) in each case. Moreover, the GI50 in [13], in experiment [14], in [15], in experiment [16], in experiment [17] and in [18] was > 100 µM (inactive) each time.

Consider `Cc1c(N/C=C(\C#N)C(=O)c2ccc(Cl)cc2)c(=O)n(-c2ccccc2)n1C`, for which the GI50 was 54 µM (inactive) in [1]; > 100 µM (inactive) in experiment [2]; > 100 µM (inactive) in experiment [3]; > 100 µM (inactive) in experiment [4]; > 100 µM (inactive) in [5]; > 100 µM (inactive) in [6]. Also, the GI50 in experiment [7] is > 100 µM (inactive); in experiment [8], > 100 µM (inactive); in [9] it was 66.7 µM (inactive); in experiment [10], > 100 µM (inactive); in [11], > 100 µM (inactive); in experiment [12], > 100 µM (inactive). The GI50 was > 100 µM (inactive) in experiment [13]; > 100 µM (inactive) in experiment [14]; 32.9 µM (inactive) in experiment [15]; 48.8 µM (inactive) in experiment [16]; > 100 µM (inactive) in experiment [17]; > 100 µM (inactive) in [18].

Take `COCCOC(=O)NCn1cc(-c2ccccc2)nn1`: the GI50 in experiment [1] is 13.8 µM (inactive); in [2] it was > 100 µM (inactive); in [3], > 100 µM (inactive); in experiment [4] it was > 100 µM (inactive); in experiment [5], > 100 µM (inactive); in [6], > 100 µM (inactive). Moreover, the GI50 in [7], in [8], in experiment [9], in experiment [11], in experiment [19] and in experiment [12] was > 100 µM (inactive) throughout. In addition, the GI50 in experiment [13], in experiment [14], in experiment [15] and in experiment [18] was > 100 µM (inactive) in each case.

As for `CC1=CC=C2c3ccccc3C=CN2C(=O)C1`, the GI50 was 54.8 µM (inactive) in experiment [1]; > 100 µM (inactive) in [2]; 53.2 µM (inactive) in experiment [3]; 56.5 µM (inactive) in [4]; 40.5 µM (inactive) in [5]; 43.3 µM (inactive) in experiment [6]. Also, the GI50 in experiment [7] was 60.7 µM (inactive); in [9], 22.1 µM (inactive); in experiment [10], > 100 µM (inactive); in experiment [11] it was 63.5 µM (inactive); in experiment [19] it was 40.7 µM (inactive); in experiment [12] it was 73.8 µM (inactive). Further, the GI50 is 41.3 µM (inactive) in experiment [13], 23 µM (inactive) in [14], 20.1 µM (inactive) in experiment [15] and 96.6 µM (inactive) in [18].

`CN(C)C(=O)N1N[C@H](c2ccccc2)[C@@H]1c1ccccc1`: the GI50 in [1], in [2], in [4], in experiment [5], in experiment [6] and in [7] was > 100 µM (inactive) throughout. Moreover, the GI50 in experiment [8], in experiment [9], in experiment [10], in experiment [11], in [12] and in [13] was > 100 µM (inactive) throughout. For the same molecule, the GI50 in experiment [14] was > 100 µM (inactive); in [15], > 100 µM (inactive); in experiment [16] it was > 100 µM (inactive); in experiment [17] it was 13.5 µM (inactive); in [18], > 100 µM (inactive).

For the molecule `CN(c1ccccc1Cl)S(=O)(=O)c1ccccc1`, the GI50 in experiment [1] is > 100 µM (inactive); in [2], > 100 µM (inactive); in experiment [3] it was > 100 µM (inactive); in experiment [4], > 100 µM (inactive); in experiment [5], 81.5 µM (inactive); in experiment [6], > 100 µM (inactive). The GI50 was > 100 µM (inactive) in [7]; 34.9 µM (inactive) in experiment [9]; 93.1 µM (inactive) in experiment [10]; > 100 µM (inactive) in experiment [11]; 55.8 µM (inactive) in [19]; > 100 µM (inactive) in [12]. For the same molecule, the GI50 in experiment [13] was > 100 µM (inactive); in experiment [14], 50.4 µM (inactive); in experiment [15], > 100 µM (inactive); in experiment [18], > 100 µM (inactive).

For the molecule `CC(=O)Nc1ccc2c(C(=O)O)c(C)c(O)nc2n1`, the GI50 in experiment [1] is 33.7 µM (inactive); in experiment [3], > 100 µM (inactive); in experiment [4], > 100 µM (inactive); in [5], > 100 µM (inactive); in experiment [6], 32.5 µM (inactive); in [7] it was > 100 µM (inactive). Moreover, the GI50 is 5.27 µM (inactive) in experiment [8]; > 100 µM (inactive) in experiment [9]; > 100 µM (inactive) in experiment [10]; > 100 µM (inactive) in experiment [11]; > 10 µM (inactive) in [19]; > 100 µM (inactive) in experiment [12]. Also, the GI50 in [13], in experiment [14], in experiment [15], in experiment [17] and in experiment [18] was > 100 µM (inactive) throughout.

On to `CN1C(=O)[C@H](c2c[nH]c3ccccc23)[C@H](c2c[nH]c3ccccc23)C1=O`, for which the GI50 was 27.2 µM (inactive) in experiment [1]; 5.32 µM (inactive) in experiment [2]; 23.9 µM (inactive) in [3]; 2.2 µM (inactive) in [4]; 4.4 µM (inactive) in [5]; 34.2 µM (inactive) in [6]. Also, the GI50 in experiment [7] was > 45.2 µM (inactive); in experiment [8] it was > 35.9 µM (inactive); in [9], 22 µM (inactive); in experiment [10], 38.2 µM (inactive); in [11], 44.2 µM (inactive); in experiment [19], 22.6 µM (inactive). The GI50 in [12] is 21.7 µM (inactive); in experiment [13], 32.9 µM (inactive); in experiment [14], 29.4 µM (inactive); in experiment [15], 22 µM (inactive); in experiment [17], 26.7 µM (inactive); in experiment [18], 29.5 µM (inactive).

On to `CC1=C(O)C(=O)C[C@]2(C)[C@H]3CC=C4[C@@H]5CC(C)(C)CC[C@@H]5C(=O)[C@H](O)[C@@]4(C)[C@]3(C)CC[C@@H]12`, for which the GI50 in [1] is > 50 µM (inactive); in experiment [2], 40.4 µM (inactive); in experiment [3], > 50 µM (inactive); in [4] it was > 50 µM (inactive); in [5], > 50 µM (inactive); in [6] it was 16.6 µM (inactive). Moreover, the GI50 was 19.1 µM (inactive) in experiment [7]; 7.36 µM (inactive) in experiment [8]; 34.8 µM (inactive) in experiment [9]; > 50 µM (inactive) in experiment [10]; > 50 µM (inactive) in experiment [11]; 2.8 µM (inactive) in [12]. Further, the GI50 was 24.8 µM (inactive) in experiment [13]; > 50 µM (inactive) in experiment [14]; 23.9 µM (inactive) in [15]; > 50 µM (inactive) in experiment [16]; 10 µM (inactive) in experiment [17]; > 50 µM (inactive) in experiment [18].

With `COc1ccc2cc3c4cc5c(cc4cc[n+]3cc2c1OC)OCO5`, the GI50 in experiment [1] is 26.4 µM (inactive); in [2], 20.6 µM (inactive); in experiment [3], 17.9 µM (inactive); in experiment [5] it was 23.4 µM (inactive); in experiment [6], 3.63 µM (inactive); in experiment [7], 10.2 µM (inactive). The GI50 in [8] was 18.1 µM (inactive); in [9], 3.39 µM (inactive); in experiment [10], 29.4 µM (inactive); in experiment [11], 2.52 µM (inactive); in experiment [12], 11.4 µM (inactive); in [13] it was 18.3 µM (inactive). The GI50 in [14] was 6.22 µM (inactive); in experiment [15], 19.9 µM (inactive); in experiment [16], > 100 µM (inactive); in [17], 24.4 µM (inactive); in experiment [18] it was 6.46 µM (inactive).

Regarding `N#Cc1c2c(c(Nc3cccc(C(F)(F)F)c3)n3c1nc1ccccc13)CCCC2`, the GI50 in experiment [1] was 26.5 µM (inactive); in experiment [2], 13.9 µM (inactive); in experiment [3], 23.1 µM (inactive); in experiment [4] it was 22.5 µM (inactive); in experiment [5] it was 17.5 µM (inactive); in experiment [6] it was 1.47 µM (inactive). Further, the GI50 in experiment [7] was 13.1 µM (inactive); in experiment [8], 3.99 µM (inactive); in experiment [9], 60.8 µM (inactive); in experiment [10], 17.1 µM (inactive); in experiment [11], 22.8 µM (inactive); in experiment [12], 16.3 µM (inactive). The GI50 in experiment [14] is 20.8 µM (inactive); in [15], 16.3 µM (inactive); in [16] it was 26.8 µM (inactive); in experiment [17] it was 22.7 µM (inactive); in experiment [18] it was 22.2 µM (inactive).

As to `Cc1cccc(/C=N/NC(=S)N2CCCCCC2)n1`, the GI50 in experiment [1] is 1.33 µM (inactive); in [3], 0.0977 µM (active); in experiment [4], 0.369 µM (active); in experiment [5] it was < 0.01 µM (active); in experiment [6] it was < 0.01 µM (active); in [7], 0.0724 µM (active). For the same molecule, the GI50 is 0.519 µM (active) in [8]; 0.0661 µM (active) in experiment [9]; 0.556 µM (active) in [10]; 0.101 µM (active) in [11]; 0.205 µM (active) in experiment [12]; 0.111 µM (active) in [13]. Moreover, the GI50 was 0.288 µM (active) in experiment [14], 0.449 µM (active) in experiment [16], 0.515 µM (active) in experiment [17] and 0.0418 µM (active) in experiment [18].

The values above are taken from ChEMBL document CHEMBL1201862, “PubChem BioAssay data set” (2004).
